The test system of data set [1] is Moraxella catarrhalis (MCAT 30607). Description: MIC by agar dilution, MCAT 30607. To be noted: Moraxella catarrhalis, Minimum Inhibitory Concentration, strain MCAT 30607. The format is cell-based. From the text: (§1) The oxazolidinone antibacterial agents of this invention have useful activity against a variety of organisms. The in vitro activity of compounds of this invention can be assessed by standard testing procedures such as the determination of minimum inhibitory concentration (MIC) by agar dilution as described in “Approved Standard. Methods for Dilution Antimicrobial Susceptibility Tests for Bacteria That Grow Aerobically”, 3rd. ed., published 1993 by the National Committee for Clinical Laboratory Standards, Villanova, Pa., USA. The activity of compounds of this invention against Staphylococcus aureus, Staphylococcus epidermidis, Streptococcus pneumoniae, Streptococcus pyogens, Enterococcus faecalis, Moraxella catarrhalis and H. influenzae is shown in Table 1.
For orientation: In agar dilution, organisms are placed on agar that contains the substance at set levels.

In data set [2] the test system is Streptococcus pneumoniae (SPNE 9912). Description: MIC by agar dilution, SPNE 9912. To be noted: Streptococcus pneumoniae, Minimum Inhibitory Concentration, strain SPNE 9912. The format is cell-based.
Text: as §1

Data set [3] deals with Enterococcus faecalis (EFAE 9217). Description: MIC by agar dilution, EFAE 9217. Format: cell-based. To be noted: Enterococcus faecalis, Minimum Inhibitory Concentration, strain EFAE 9217.
Text: as §1

Data set [4] concerns Staphylococcus epidermidis (SEPI 30593). Description: MIC by agar dilution, SEPI 30593. The settings on record: Staphylococcus epidermidis, Minimum Inhibitory Concentration, strain SEPI 30593. The format is cell-based.
Text: as §1

Data set [5] relates to H. influenzae (HINF 30063). Description: MIC by agar dilution, HINF 30063. Format: cell-based. To be noted: Haemophilus influenzae, Minimum Inhibitory Concentration, strain HINF 30063.
Text: as §1

The test system of data set [6] is Streptococcus pyogens (SPYO 152). In words: MIC by agar dilution, SPYO 152. The settings on record: Streptococcus, Minimum Inhibitory Concentration, strain SPYO 152. Format: cell-based.
Text: as §1

Data set [7] relates to Enterococcus faecalis (EFAE 12712). In words: MIC by agar dilution, EFAE 12712. The format is cell-based. To be noted: Enterococcus faecalis, Minimum Inhibitory Concentration, strain EFAE 12712.
Text: as §1

The subject of data set [8] is Staphylococcus aureus (SAUR 9213). In words: MIC by agar dilution, SAUR 9213. The format is cell-based. To be noted: Staphylococcus aureus, Minimum Inhibitory Concentration, strain SAUR 9213.
Text: as §1

Values after ≈ are worked out from the molar mass of the structure shown.

Consider `CCC(=S)NC[C@H]1CN(c2ccc(N3CCN(C(=O)[C@H](O)Cc4ccccc4)CC3)c(F)c2)C(=O)O1` [EX 20, N-[((5S)-3-{3-fluoro-4-[4-((2R)-2-hydroxy-3-phenylpropanoyl)-1-piperazinyl]phenyl}-2-oxo-1,3-oxazolidin-5-yl)methyl]propanethioamide], for which the melting point (as a rule, the temperature of the solid-liquid transition) is 128 to 130 °C (dec.). In data set [1], this compound yielded an MIC of 4 µg/mL (≈ 7.77 µM). In data set [2], this compound came in with an MIC of less than 0.5 µg/mL. The compound also came in with an MIC in data set [3] of 1 µg/mL (≈ 1.94 µM). This compound also yielded an MIC in data set [4] of 1 µg/mL (≈ 1.94 µM). The compound further returned an MIC in data set [5] of 64 µg/mL (≈ 124 µM). The compound further yielded an MIC in [6] of 1 µg/mL (≈ 1.94 µM). In addition, the MIC in data set [7] stood at 1 µg/mL (≈ 1.94 µM). The same compound had an MIC in data set [8] of 1 µg/mL (≈ 1.94 µM).
